Tests used:
Slc: ddY mice = experiment: Novel object recognition test with mice (mORT); type: in vivo; settings: 0.3 mg/kg, 1.0 mg/kg or 3 mg/kg
Protocol: Evaluation of Cognitive Function with Mice in Novel Object Recognition Test (Hereinafter, Referred to as “mORT”)
Slc: ddY mice (25 g to 30 g, male, Japan SLC) can be used in the novel object recognition test wherein the interval between the 1st trial (training) and the 2nd trial (test) correlates with the memory loss for the objects used in the 1st trial, and a significant memory-loss is observed when the 2nd trial is performed 24 hours after the 1st trial. According to the test mechanism, the present compounds were administered prior to the 1st trial, and the enhancement effect on memory in the 2nd trial was evaluated.

human α7 nAChR = molecular target: T1, human α7 nAChR (Homo sapiens, UniProt P36544); experiment: Evaluation of PAM activity with human α7 nACh receptor stably expressing cells (aequorin luminescence, FDSS7000); type: cell-based; settings: ACh at EC20; for α7PAM (%) @ 10 μmol/L: test compound 10 μmol/L, ratio of RLU (Max-Min) of test-compound wells to control wells, human α7 nAChR expressing GH4C1 cells; for PAM activity for α7 nAChR (in words): ratio of RLU (Max-Min) of test wells to control wells
T1 construct: expressed in transfected cells; host or cells: GH4C1 cells (rat pituitary, ATCC CCL-82.2)
T1 sequence (P36544 23-502): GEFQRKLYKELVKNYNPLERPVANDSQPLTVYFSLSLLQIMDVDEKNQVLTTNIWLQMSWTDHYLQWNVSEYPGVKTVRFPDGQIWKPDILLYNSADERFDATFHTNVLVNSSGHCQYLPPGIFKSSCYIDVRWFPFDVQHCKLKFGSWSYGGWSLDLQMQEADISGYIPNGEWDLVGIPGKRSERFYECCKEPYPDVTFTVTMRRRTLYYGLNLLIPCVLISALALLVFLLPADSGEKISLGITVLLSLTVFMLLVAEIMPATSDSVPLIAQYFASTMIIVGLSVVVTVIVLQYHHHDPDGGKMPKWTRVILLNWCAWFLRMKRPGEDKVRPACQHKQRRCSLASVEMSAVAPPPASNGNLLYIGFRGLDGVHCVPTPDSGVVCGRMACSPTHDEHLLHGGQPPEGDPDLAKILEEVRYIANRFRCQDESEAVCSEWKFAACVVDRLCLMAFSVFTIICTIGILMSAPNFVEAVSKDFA
Source text: Evaluation of PAM Activity with Human α7 nACh Receptor Stably Expressing Cells
(1) Human α7 nAChR stably expressing cells
Human α7 nAChR stably expressing cells were generated and cultured. In detail, GH4C1 cells derived from rat pituitary (cat#CCL-82.2, ATCC, USA) were used as a host cell. PcDNA3.1Zeo vector containing a nucleotide sequence encoding a protein GenBank BAC81731 and pcDNA3.1 vector containing human α7 nAChR gene (cat#V790-20, invitrogen, Carlsbad, Calif., USA) were transfected to the cells to give aequorins and human α7 nAChR stably expressing cells respectively. The aequorins and human α7 nAChR stably expressing cells were screened with Zeocin (cat#R25001, invitrogen, Carlsbad, Calif., USA) and Geneticin (cat#10131-027, invitrogen, Carlsbad, Calif., USA) respectively.
The cells were cultured in F-10 Nutrient Mixture (Ham) medium (cat#11550-043, invitrogen, Carlsbad, Calif., USA) containing 2.5% fetal bovine serum (cat#2917354, ICN Biomedicals, Inc, USA), 15% inactivated horse serum (cat#26050-088, invitrogen, Carlsbad, Calif., USA), 1 μg/mL Geneticin, and 5 μg/mL Puromycin (cat#14861-84, invitrogen, Carlsbad, Calif., USA), in a Collagen Type 1-coated dish (cat#4030-010, iwaki, Tokyo, Japan). During the culture, the medium was replaced with fresh medium in every 2 to 3 days, and the cells were treated with TrypLE Express (cat#45604-021, invitrogen, Carlsbad, Calif., USA) to collect them in every 7 days. Thus, the cells were subcultured.
7 Days after subculturing, the cells were treated with TrypLE Express to collect them when they were about 80% confluent. The cells were suspended in a reaction medium containing Hanks (cat#14065-056, invitrogen, Carlsbad, Calif., USA)/20 mmol/L Hepes (cat#15630-080, invitrogen, Carlsbad, Calif., USA), Buffer (pH 7.4), F-10 Nutrient Mixture (Ham), and 0.1 mg/mL Geneticin, and the suspension was seeded in a 384-well plate (cat#781090, Greiner, Germany) at 20000 cells/25 μL per well.
On the next day after seeding, Viviren (cat#E649X, Promega, Madison, Wis., USA) was added to the medium so that the final concentration could be 4 μmol/L (15 μL/well). The plates were centrifuged and then placed in the dark for 4 hours at room temperature.
(2) Preparation of the Test Samples
Each of the test compounds was dissolved in DMSO to prepare each test sample at a concentration of 1000-fold the final concentration. To the solution was added Hanks/20 mM HEPES/0.2% BSA (cat#A3803, Sigma, St. Louis, Mo., USA), and the concentration was adjusted to 6-fold the final concentration.
(3) Evaluation of PAM Activity
FDSS7000 (Hamamatsu Photonics) was used to detect the luminescence signal evoked by α7 nAChR stimulation. The cells and a luminescent substrate were put on a plate, and the test sample was added thereto. […] After the addition of ACh, the luminescence signal (the central wavelength: 465 nm) was measured for 138 seconds to calculate RLU (Max-Min). The ratio of the RLU (Max-Min) of the test-compound-containing wells to that of the control wells was defined as PAM activity.

Row | Structure (SMILES) | efficacy at higher doses (Slc: ddY mice) | α7PAM (%) @ 10 μmol/L (human α7 nAChR) [%] | PAM activity for α7 nAChR (in words) (human α7 nAChR)
1 | CO[C@H]1CC[C@H](NC(=O)N2CCC(n3ncc4cc(C5CC5)ccc43)CC2)CC1 [Example 74, 4-(5-cyclopropyl-1H-indazol-1-yl)-N-(trans-4-methoxycyclohexyl)piperidine-1-carboxamide] | the efficacy did not decrease | 1226 | 
2 | CCc1ccc2c(cnn2C2CCN(C(=O)NC3CCC(F)(F)CC3)CC2)c1 [Example 23] |  |  | stronger PAM activity than others
3 | CO[C@H]1CC[C@H](NC(=O)N2CCC(n3ncc4c(C)c(C)ccc43)CC2)CC1 [Example 225] |  | 480 | 
4 | CCc1ccc2c(cnn2C2CCN(C(=O)NC3CCCOC3)CC2)c1 (stereo not shown) [Example 22, 4-(5-ethyl-1H-indazol-1-yl)-N-(tetrahydro-2H-pyran-3-yl)piperidine-1-carboxamide] |  | 1425 | 
5 | CC(C)Oc1ccc2c(cnn2C2CCN(C(=O)NC3CCCCC3)CC2)c1 [Example 48, N-cyclohexyl-4-(5-isopropoxy-1H-indazol-1-yl)piperidine-1-carboxamide] |  | 1202 | 
6 | COC(C)c1c(C)ccc2c1cnn2C1CCN(C(=O)NC2CCC(F)(F)CC2)CC1 (stereo not shown) [Example 232] |  | 860 | 
7 | CO[C@H]1CC[C@H](NC(=O)N2CCC(n3ncc4cc(C)ccc43)CC2)CC1 [Example 1, N-(trans-4-methoxycyclohexyl)-4-(5-methyl-1H-indazol-1-yl)piperidine-1-carboxamide] | the efficacy did not decrease | 1209 | 
8 | Cc1ccc2c(cnn2C2CCN(C(=O)NC3CCCCC3)CC2)c1 [Example 8, N-cyclohexyl-4-(5-methyl-1H-indazol-1-yl)piperidine-1-carboxamide] |  | 3053 | stronger PAM activity than others
9 | CCc1ccc2c(cnn2[C@H]2CC[C@@H](NC(=O)[C@H]3CC[C@H](OC)CC3)CC2)c1 [Example 122] |  | 410 | 
10 | CO[C@H]1CCC[C@H](NC(=O)N2CCC(n3ncc4cc(C5CC5)ccc43)CC2)C1 [Example 211, 4-(5-cyclopropyl-1H-indazol-1-yl)-N-[(1S,3S)-3-methoxycyclohexyl]piperidine-1-carboxamide] |  | 1034 | 
